Results taken from US6458580B1, “Fungal sulphur source and method of using the same” (Commonwealth Scientific and Industrial Research Organisation, priority 1997, dated 2002).
Where “and” joins values, the source holds several entries; their conditions need not be identical. Identical values can stand only once.

How the values were obtained:
rumen fungi = experiment: Effect of different intra-ruminal doses on fungal zoospore numbers in the rumen; assay type: in vivo, sheep
Procedure: Six cross-bred sheep [[…]] having rumen cannula were moved metabolism cages equipped with automatic feeders. They were given eight equal buckets of feed a day (three hourly) and offered water ad-lib. The sheep were offered 1.1 kg of a low sulphur feed (see below). After a period of three weeks on the diet rumen digesta was collected and rumen fluid (150 ml)was taken for zoospore counts. (An extra 100 ml of rumen digest was taken from each animal combined and mixed and 100 ml returned to each rumen to minimise differences between animals.) Zoospores were assessed by standard methods for handling anaerobic fungi. Serial dilutions of rumen fluid were prepared using an anaerobic diluent. Agar roll tubes were inoculated using a syringe with 0.2 ml of either a dilution of rumen fluid or undiluted rumen fluid. The media used was one mimicking the rumen environment but without added rumen fluid and with antibiotics (penicillin and streptomycin) added to stop overgrowth by rumen bacteria. After incubation the number of thallus forming units were counted and the number of zoospores in the rumen fluid calculated. […] The sheep were initially infused at the rate of 0.4 mMoles sulphur per day per 4 liters (ie 0.1 mM in rumen) This was equivalent to 12.67 mg Sulphur/day. The same protocols were used with successively higher doses. […] Each infusion was for one weeks before sampling rumen fluid and infusing the higher dose. […] Wheat straw was milled and approximately 40 kg quantities were transferred from the Gell feed mill to a mixer where 4 l of 40% NaOH was added while mixing. The feed was bagged (approximately two bags per 40 kg) and left for several days before a minerals mix was added. Two bags were placed in the mixer and the compounds in Table 3 were added. Trace elements were made up in 140 ml in water and were added to the urea which was previously dissolved in 25 Liters of water. This solution was then added to two bags of alkali treated feed while mixing. The remaining dry chemicals were mixed and the appropriate amount added (1.638 kg) onto the mixing feed. […]

Fungal Zoospores = experiment: Effect of infusion on fungal zoospores in rumen fluid; assay type: in vivo, sheep; details: for Fungal Zoospores, MPA: MPA infused at 192 mg Sulphur/sheep/day; for Fungal Zoospores, MPA / Fungal Zoospores, log (+): log10 increase after infusion of MPA: individual sheep and Aver. n = 13; for Fungal Zoospores, log (+): log10 increase after infusion of MPA: versus control period
Procedure: Feed was prepared as previously described (see example 4). Initially 22 sheep were fed 1 kg of alkali straw/day in the animal house for 4 days to select out sheep not eating the diet. 19 sheep were weighted and transferred to metabolism cages and feed the alkali straw diet ad-lib. Sheep were fed and on the following day the feed refusal weighted and if less then 100 g remained a further 100 g was fed; if 100-200g of feed remained the sheep was given the same amount of feed; if over 200 g of feed was left the sheep was given 100 g less feed. Over the following week another 6 sheep were moved out of the experiment (usually due to very low or erratic intakes). […] After 14 days infusion the collection period of 7 days commenced. At the end of the collection period samples of rumen digesta were taken for microbiology and other analyses. Rumen fluid was collected and fungal zoospores and total bacteria assessed as described in example 4 (the total bacteria were assessed on the same medium but without antibiotics). Cellulolytic bacteria were assessed by a most probable number count. Rumen fluid was serially diluted and subsamples of each dilution inoculated into 5 culture tubes containing an anaerobic medium containing rumen fluid and strips of filter paper. After incubation the presence of cellulolytic bacteria was detected by degradation of the paper and the numbers of positive tubes compared to tables to give a number of these bacteria in the original sample. Following the last sampling the infusion was stopped in the first group of sheep and on the following day the infusion treatment was begun in the other group of seven sheep. The second period (the crossover) was conducted in the same way as the first period with the same samples being taken at the same times. The number of zoospores in samples of strained ruminal fluid can be used to follow zoosporogenesis in the rumen and it provides a relative estimate of the size of the anaerobic fungal population. (1) Strain a sample of ruminal digesta through an open weave cloth, and collect the filtered fluid in a CO2-filled flask. (2) Serially dilute the fluid ten-fold in anaerobic dilution solution (ADS) to a final dilution of 10^−3. To do this, transfer 1 ml volumes using 1 ml disposable sterile syringes fitted with sterile 23 gauge (0.65 mm) needles to tubes containing 9 ml ADS, starting with fluid to form the 10^−1 dilution. Use a clean syringe at each dilution step. (3) Using a 1 ml syringe (and 23 ga. needle, as before) inoculate three roll tubes each with 0.2 ml of 10^−3 dilution. Immediately roll these tubes horizontally on ice until the agar sets. With the same syringe, inoculate three more roll tubes with 0.2 ml of 10^−2 dilution and roll them. Repeat with 10^−1 dilution and finally with undiluted fluid, if appropriate. (4) Incubate the roll tubes vertically at 39° C. for 5 d.

O=C(O)CCS [MPA, 3-mercaptopropanoic acid]
levels of fungi (rumen fungi; dose of 0.75 mM (95 mg S/day), four of the six animals): ≈ 1000 /ml | optimum level of MPA (rumen fungi; rumen concentration, 190 mg S/day, very low S content diet): 1.5 mM | relation between concentration of MPA in the rumen and numbers of zoospores in rumen fluid (rumen fungi; sheep on low sulphur diet (0.052% sulphur), 0-5.0 mM in rumen, seven days per dose, FIG. 3): clear dose response | response in numbers of rumen fungi to infusion (Fungal Zoospores; 192 mg Sulphur/day/sheep, with the exception of one animal): strong, positive, response | Fungal Zoospores, MPA (Fungal Zoospores): 2567 per ml rumen fluid and 7083 per ml rumen fluid and 3050 per ml rumen fluid and 7283 per ml rumen fluid and 1783 per ml rumen fluid and 7250 per ml rumen fluid and 6167 per ml rumen fluid and 4417 per ml rumen fluid and 9017 per ml rumen fluid and 6467 per ml rumen fluid and 11167 per ml rumen fluid and 5383 per ml rumen fluid and 4900 per ml rumen fluid | Fungal Zoospores, MPA (Fungal Zoospores; mean): 5887 per ml rumen fluid | Fungal Zoospores, log (+): log10 increase after infusion of MPA (Fungal Zoospores): 2.7 log10 and 2.5 log10 and 2.0 log10 and 2.3 log10 and 0.4 log10 and 0.5 log10 and 0.7 log10 and 0.8 log10 and 0.2 log10 and 0.6 log10 and 1.0 log10 (2×) and 1.1 log10 | Fungal Zoospores, log (+): log10 increase after infusion of MPA (Fungal Zoospores; mean): 1.20 log10
